Assay results: patent US6706663B2, “Herbicidal 3-heterocyclic substituted benzisothiazole and benzisoxazole compounds” (Wyeth, priority 2000, dated 2004)

Experiments:
[1] = tested on: ECHORC (Echinochloa oryzoides); experiment: Flooded paddy, preemergence weed control; assay type: in vivo, Echinochloa oryzoides (Ard.) Fritsch.; settings: rated 3-4 weeks after treatment, 0-9 rating scale
Outline: (§1)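 Visual 0-9 rating versus control, scoring stand, vigor, malformation, size, chlorosis and overall appearance. Silt loam soil, propagules in top 0.5 cm; flood depth 1.5–3 cm held for the whole test; greenhouse.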

SETVI (Setaria viridis) [2] = experiment: Postemergence herbicidal evaluation; assay type: in vivo, (L.) Beau; settings: postemergence
Outline: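 Ratings use a 0-9 visual scale covering stand, vigor, malformation, size, chlorosis and appearance versus a control, scored 4-5 weeks post-spray. Roughly two-week-old seedlings received about 0.0040-1.000 kg/ha active, applied in 50/50 acetone/water with 0.5% TWEEN 20. Multiple tests per compound were averaged.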

ORYSAT (Rice, Tebonnet) [3] = experiment: Flooded paddy, post-transplant rice tolerance; assay type: in vivo, Oryza sativa, (L.) Tebonnet; settings: flooded paddy, post-transplant rice, rated 3-4 weeks after treatment, 0-9 rating scale
Outline: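 Visual 0–9 injury rating against a control, covering stand, vigor, malformation, size, chlorosis and overall appearance. Treatment was post-transplant onto flooded containers (water 1.5–3 cm deep, silt loam) holding two ten-day-old cv. Tebonnet seedlings, maintained on greenhouse benches.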

[4] = tested on: GLXMAW (Soybean, Williams); experiment: Postemergence herbicidal evaluation; assay type: in vivo, Glycine max, (L.) Merr. cv Williams; settings: postemergence
Outline: (§2)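 Seedlings grown for about two weeks were sprayed postemergence and then kept under standard greenhouse care. Injury was rated visually 4–5 weeks after treatment on a 0–9 scale against untreated controls, and ratings from repeat tests were averaged.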

GALAP (Galium aparine) = experiment: Postemergence herbicidal evaluation; assay type: in vivo; settings: postemergence
Outline: as §2

[5] = tested on: SAGPY (Sagittaria pygmaea); experiment: Flooded paddy, preemergence weed control; assay type: in vivo, L.; settings: rated 3-4 weeks after treatment, 0-9 rating scale
Outline: as §1

[6] = tested on: MOOVA (Monochoria vaginalis); experiment: Flooded paddy, preemergence weed control; assay type: in vivo, Presl.; settings: rated 3-4 weeks after treatment, 0-9 rating scale
Outline: as §1

ORYSAT (Rice, Tebonnet) [7] = experiment: Postemergence herbicidal evaluation; assay type: in vivo, Oryza sativa, (L.) Tebonnet; settings: postemergence
Outline: as §2

ZEAMX (Corn, Field) = experiment: Postemergence herbicidal evaluation; assay type: in vivo, Zea mays, L.; settings: postemergence
Outline: as §2

[8] = tested on: ECHCG (Echinochloa crus-galli); experiment: Postemergence herbicidal evaluation; assay type: in vivo, (L.) Beau; settings: postemergence
Outline: as §2

CYPIR (Cyperus iria) = experiment: Flooded paddy, preemergence weed control; assay type: in vivo; settings: rated 3-4 weeks after treatment, 0-9 rating scale
Outline: as §1

[9] = tested on: CHEAL (Chenopodium album); experiment: Preemergence herbicidal evaluation; assay type: in vivo, L.; settings: rated 4-5 weeks after treatment
Outline: (§3)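 Test compound is applied in aqueous acetone to cups just after seeding. Cups are watered and maintained on greenhouse benches. Each cup is scored 0–9 by eye relative to a control after four to five weeks.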

[10] = tested on: AMBEL (Ambrosia artemisifolia); experiment: Preemergence herbicidal evaluation; assay type: in vivo, L.; settings: rated 4-5 weeks after treatment
Outline: as §3

[11] = tested on: CASOB (Cassia obtusifolia); experiment: Preemergence herbicidal evaluation; assay type: in vivo, L.; settings: rated 4-5 weeks after treatment
Outline: as §3

ORYSAT (Rice, Tebonnet) [12] = experiment: Preemergence herbicidal evaluation; assay type: in vivo, Oryza sativa, (L.) Tebonnet; settings: rated 4-5 weeks after treatment
[13] = tested on: ABUTH (Abutilon theophrasti); experiment: Postemergence herbicidal evaluation; assay type: in vivo, Medic.; settings: postemergence
Outline: as §2

[14] = tested on: IPOHE (Ipomoea hederacea); experiment: Postemergence herbicidal evaluation; assay type: in vivo, (L.) Jacq.; settings: postemergence
Outline: as §2

[15] = tested on: IPOHE (Ipomoea hederacea); experiment: Preemergence herbicidal evaluation; assay type: in vivo, (L.) Jacq.; settings: rated 4-5 weeks after treatment
SETVI (Setaria viridis) [16] = experiment: Preemergence herbicidal evaluation; assay type: in vivo, (L.) Beau; settings: rated 4-5 weeks after treatment
Outline: as §3

[17] = tested on: ECHCG (Echinochloa crus-galli); experiment: Preemergence herbicidal evaluation; assay type: in vivo, (L.) Beau; settings: rated 4-5 weeks after treatment
Outline: as §3

C[C@@H]1C[C@H](C)OC(c2nsc3ccc(-n4c(=O)cc(C(F)(F)F)n(C)c4=O)cc23)O1 (stereo partly drawn) [Compound 51, 3-[3-[(4R,6S)-4,6-dimethyl-m-dioxan-2-yl]-1,2-benzisothiazol-5-yl]-1-methyl-6-(trifluoromethyl)uracil]
0.0: herbicidal rating, SAGPY ([5]; rate 0.0080 kg/ha)
4.0: ORYSAT herbicidal rating (ORYSAT (Rice, Tebonnet) [7]; rate 0.0620 kg/ha)
7.5: GLXMAW herbicidal rating ([4]; rate 0.0620 kg/ha)
6.5: Preemergence herbicidal rating IPOHE ([15]; Rate 0.0620 kg/ha)
5.0: GLXMAW herbicidal rating ([4]; rate 0.0320 kg/ha) | GALAP herbicidal rating (GALAP (Galium aparine); rate 0.0620 kg/ha) | ZEAMX herbicidal rating (ZEAMX (Corn, Field); rate 0.0320 kg/ha)
9.0: herbicidal rating, ECHORC ([1]; rate 0.0320 kg/ha) | herbicidal rating, ECHORC ([1]; rate 0.1250 kg/ha) | herbicidal rating, ORYSAT (rice tolerance) (ORYSAT (Rice, Tebonnet) [3]; rate 0.0320 kg/ha) | herbicidal rating, ORYSAT (rice tolerance) (ORYSAT (Rice, Tebonnet) [3]; rate 0.1250 kg/ha) | herbicidal rating, SAGPY ([5]; rate 0.1250 kg/ha) | herbicidal rating, MOOVA ([6]; rate 0.0320 kg/ha) | herbicidal rating, MOOVA ([6]; rate 0.1250 kg/ha) | herbicidal rating, CYPIR (CYPIR (Cyperus iria); rate 0.1250 kg/ha) | Preemergence herbicidal rating CHEAL ([9]; Rate 0.0620 kg/ha) | Preemergence herbicidal rating CHEAL ([9]; Rate 0.1250 kg/ha) | Preemergence herbicidal rating CHEAL ([9]; Rate 0.2500 kg/ha) | Preemergence herbicidal rating AMBEL ([10]; Rate 0.0620 kg/ha) | Preemergence herbicidal rating AMBEL ([10]; Rate 0.1250 kg/ha) | Preemergence herbicidal rating AMBEL ([10]; Rate 0.2500 kg/ha) | Preemergence herbicidal rating CASOB ([11]; Rate 0.0620 kg/ha) | Preemergence herbicidal rating CASOB ([11]; Rate 0.1250 kg/ha) | Preemergence herbicidal rating CASOB ([11]; Rate 0.2500 kg/ha) | Preemergence herbicidal rating ORYSAT (ORYSAT (Rice, Tebonnet) [12]; Rate 0.1250 kg/ha) | Preemergence herbicidal rating ORYSAT (ORYSAT (Rice, Tebonnet) [12]; Rate 0.2500 kg/ha) | ABUTH herbicidal rating ([13]; rate 0.0320 kg/ha) | ABUTH herbicidal rating ([13]; rate 0.0620 kg/ha) | IPOHE herbicidal rating ([14]; rate 0.0320 kg/ha) | IPOHE herbicidal rating ([14]; rate 0.0620 kg/ha) | Preemergence herbicidal rating IPOHE ([15]; Rate 0.1250 kg/ha) | Preemergence herbicidal rating IPOHE ([15]; Rate 0.2500 kg/ha) | Preemergence herbicidal rating SETVI (SETVI (Setaria viridis) [16]; Rate 0.0620 kg/ha) | Preemergence herbicidal rating SETVI (SETVI (Setaria viridis) [16]; Rate 0.1250 kg/ha) | Preemergence herbicidal rating SETVI (SETVI (Setaria viridis) [16]; Rate 0.2500 kg/ha) | Preemergence herbicidal rating ECHCG ([17]; Rate 0.0620 kg/ha) | Preemergence herbicidal rating ECHCG ([17]; Rate 0.1250 kg/ha) | Preemergence herbicidal rating ECHCG ([17]; Rate 0.2500 kg/ha)
8.5: Preemergence herbicidal rating ORYSAT (ORYSAT (Rice, Tebonnet) [12]; Rate 0.0620 kg/ha)
3.0: SETVI herbicidal rating (SETVI (Setaria viridis) [2]; rate 0.0320 kg/ha) | SETVI herbicidal rating (SETVI (Setaria viridis) [2]; rate 0.0620 kg/ha) | ORYSAT herbicidal rating (ORYSAT (Rice, Tebonnet) [7]; rate 0.0320 kg/ha) | ECHCG herbicidal rating ([8]; rate 0.0320 kg/ha) | ECHCG herbicidal rating ([8]; rate 0.0620 kg/ha) | herbicidal rating, CYPIR (CYPIR (Cyperus iria); rate 0.0080 kg/ha)
2.0: GALAP herbicidal rating (GALAP (Galium aparine); rate 0.0320 kg/ha)
5.5: ZEAMX herbicidal rating (ZEAMX (Corn, Field); rate 0.0620 kg/ha)
7.0: herbicidal rating, ORYSAT (rice tolerance) (ORYSAT (Rice, Tebonnet) [3]; rate 0.0080 kg/ha) | herbicidal rating, SAGPY ([5]; rate 0.0320 kg/ha)
8.0: herbicidal rating, ECHORC ([1]; rate 0.0080 kg/ha) | herbicidal rating, CYPIR (CYPIR (Cyperus iria); rate 0.0320 kg/ha)
